pIC50: −log10 of the molar value. Non-standard residues stand in square brackets, D forms with d. Residues, ends and D or L forms follow the SMILES beside them. *: point of attachment. 4Amb = NCc1ccc(C(=O)O)cc1; NHtBu = CC(C)(C)N*; ClAc = O=C(CCl)*; βAla = NCCC(=O)O
Columns and labels:
[1] = molecular target: T1, Proteasome subunit beta type-8 (Homo sapiens, UniProt P28062); test: Inhibition of 20S proteasome subunit beta-5i (unknown origin) using Ac-ANW-AMC as substrate and measured after 30 mins
T1 sequence (P28062 whole entry): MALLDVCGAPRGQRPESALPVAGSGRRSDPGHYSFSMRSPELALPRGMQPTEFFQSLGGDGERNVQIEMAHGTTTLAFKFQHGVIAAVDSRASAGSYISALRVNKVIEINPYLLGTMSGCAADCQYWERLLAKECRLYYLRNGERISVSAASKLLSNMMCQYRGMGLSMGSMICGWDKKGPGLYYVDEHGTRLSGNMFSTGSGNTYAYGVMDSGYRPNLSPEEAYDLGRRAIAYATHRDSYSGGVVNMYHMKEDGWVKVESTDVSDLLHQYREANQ

[2] = molecular target: T2, Proteasome Macropain subunit MB1 (Homo sapiens, UniProt P28074); test: Inhibition of 20S proteasome subunit beta-5c (unknown origin) using Ac-WLA-AMC as substrate and measured after 30 mins
T2 sequence (P28074 whole entry): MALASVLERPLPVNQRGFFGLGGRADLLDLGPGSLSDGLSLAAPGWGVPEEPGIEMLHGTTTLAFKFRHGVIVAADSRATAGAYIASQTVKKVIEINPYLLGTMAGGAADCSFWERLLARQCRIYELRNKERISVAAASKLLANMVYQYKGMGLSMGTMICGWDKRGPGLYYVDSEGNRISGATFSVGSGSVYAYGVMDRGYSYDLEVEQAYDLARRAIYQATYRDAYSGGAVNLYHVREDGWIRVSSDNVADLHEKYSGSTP

[3] = Selectivity ratio of IC50 for inhibition of 20S proteasome beta 5c subunit (unknown origin) to IC50 for inhibition of 20S proteasome subunit beta-5i
Pfeiffer = test: Antiproliferative activity against human Pfeiffer cells assessed as growth inhibition at 0.2 uM measured after 72 hrs by MTT assay; type: functional; details: read-out: GI
HCT-116 = test: Antiproliferative activity against human HCT-116 cells assessed as growth inhibition at 0.2 uM measured after 72 hrs by MTT assay; type: functional; details: read-out: GI
DOHH-2 = test: Antiproliferative activity against human DOHH-2 cells assessed as growth inhibition at 0.2 uM measured after 72 hrs by MTT assay; type: functional; details: read-out: GI
HT-29 = test: Antiproliferative activity against human HT-29 cells assessed as growth inhibition at 0.2 uM measured after 72 hrs by MTT assay; type: functional; details: read-out: GI
MCF7 = test: Antiproliferative activity against human MCF7 cells assessed as growth inhibition at 0.2 uM measured after 72 hrs by MTT assay; type: functional; details: read-out: GI

SMILES | pIC50 [1] | pIC50 [2] | Ratio IC50 [3] | inhibition of growth at 0.2 µM (Pfeiffer) [%] | inhibition of growth at 0.2 µM (HCT-116) [%] | inhibition of growth at 0.2 µM (DOHH-2) [%] | inhibition of growth at 0.2 µM (HT-29) [%] | inhibition of growth at 0.2 µM (MCF7) [%]
COC[C@H](NC(=O)[C@H](CCC(=O)NC(C)(C)C)NC(=O)CCNC(=O)CCl)C(=O)NCc1ccc(C)cc1 | 7.36 | 7.10 | 2 | – | – | – | – | –
Cc1ccc(CNC(=O)CNC(=O)[C@H](CCC(=O)NC(C)(C)C)NC(=O)CCNC(=O)CCl)cc1 | 6.20 | 5.42 | 6 | – | – | – | – | –
Cn1ncc2cc(CNC(=O)[C@H](Cc3ccccc3)NC(=O)[C@H](CCC(=O)NC(C)(C)C)NC(=O)CCNC(=O)CCl)ccc21 | – | – | 3 | – | – | – | – | –
Cc1ccc(CNC(=O)[C@H](Cc2ccccc2)NC(=O)[C@H](CCC(=O)N2CCCC2)NC(=O)[C@H](CNC(=O)CCl)NC(=O)CN2CCOCC2)cc1 | – | 5.45 | 10 | – | – | – | – | –
CC(C)(C)NC(=O)CC[C@H](NC(=O)CCNC(=O)CCl)C(=O)N[C@@H](Cc1ccccc1)C(=O)NCc1ccc(S(C)(=O)=O)cc1 | < 5.30 | – | – | – | – | – | – | –
COC(=O)c1ccc(CNC(=O)[C@H](Cc2ccccc2)NC(=O)[C@H](CCC(=O)NC(C)(C)C)NC(=O)CCNC(=O)CCl)cc1 ({ClAc-βAla}-Glu(NHtBu)-Phe-[4Amb]-OMe) | – | – | 6 | – | – | – | – | –
CC(C)(C)NC(=O)CC[C@H](NC(=O)CCNC(=O)CC#N)C(=O)N[C@@H](Cc1ccc2ccccc2c1)C(=O)NCc1cccc2ccccc12 | – | – | 52 | – | – | – | – | –
CC(C)(C)NC(=O)CC[C@H](NC(=O)CCNC(=O)CCl)C(=O)N[C@@H](Cc1ccccc1)C(=O)NCc1ccc(C#N)cc1C(F)(F)F | < 5.30 | – | – | – | – | – | – | –
Cc1ncsc1-c1ccc(CNC(=O)[C@H](Cc2ccccc2)NC(=O)[C@H](CCC(=O)NC(C)(C)C)NC(=O)CCNC(=O)CCl)cc1 | – | < 5.30 | > 11 | – | – | – | – | –
Cc1[nH]c2ccc(CNC(=O)[C@H](Cc3ccccc3)NC(=O)[C@H](CCC(=O)NC(C)(C)C)NC(=O)CCNC(=O)CCl)cc2c1C | 7.44 | – | 27 | – | – | – | – | –
CC(C)(C)NC(=O)CC[C@H](NC(=O)CCNC(=O)CCl)C(=O)N[C@@H](Cc1ccccc1)C(=O)NCc1ccccc1C(F)(F)F | – | < 5.30 | > 19 | – | – | – | – | –
Cc1ccc(CNC(=O)[C@H](Cc2ccccc2)NC(=O)[C@H](CCC(=O)NC(C)(C)C)NC(=O)[C@H](CNC(=O)CCl)NC(=O)OC(C)(C)C)cc1 | – | – | 6 | 29 | 46 | < 20 | 11 | < 20
Cc1ccc(/C=C(\C#N)C(=O)NCCC(=O)N[C@@H](CCC(=O)NC(C)(C)C)C(=O)N[C@@H](Cc2ccccc2)C(=O)NCc2ccc(C)cc2)cc1 | – | – | 9 | 29 | 41 | < 20 | < 20 | < 20
CC[C@H](NC(=O)[C@H](CCC(=O)NC(C)(C)C)NC(=O)CCNC(=O)CCl)C(=O)NCc1ccc(C)cc1 | 7.21 | 6.69 | 3 | – | – | – | – | –
Cc1ccc(CNC(=O)[C@H](Cc2ccccc2)NC(=O)[C@H](CCC(=O)NC(C)(C)C)NC(=O)[C@H](CNC(=O)CCl)NC(=O)C(=O)c2c[nH]c3ccccc23)cc1 | – | – | 2 | 32 | 44 | < 20 | < 20 | < 20
COC(=O)C1CCN(C(=O)C[C@H](NC(=O)[C@H](CNC(=O)CCl)NC(=O)CN2CCOCC2)C(=O)N[C@@H](Cc2ccccc2)C(=O)NCc2ccc(C)cc2)CC1 | 6.19 | < 6.19 | > 16 | – | – | – | – | –
Cc1ccc(CNC(=O)[C@H](Cc2ccccc2)NC(=O)[C@H](CC(=O)NCC2CCCO2)NC(=O)[C@H](CNC(=O)CCl)NC(=O)CN2CCOCC2)cc1 (stereo partly drawn) | 6.86 | 6.37 | 3 | – | – | – | – | –
Cc1ccc(CNC(=O)[C@H](Cc2ccccc2)NC(=O)[C@H](CCC(=O)NC(C)(C)C)NC(=O)CCNC(=O)/C(C#N)=C/C(C)C)cc1 | – | – | 4 | 27 | 30 | 27 | < 20 | < 20

SMILES | pIC50 [1] | pIC50 [2] | Ratio IC50 [3] | inhibition of growth at 0.2 µM (Pfeiffer) [%] | inhibition of growth at 0.2 µM (HCT-116) [%] | inhibition of growth at 0.2 µM (DOHH-2) [%] | inhibition of growth at 0.2 µM (HT-29) [%] | inhibition of growth at 0.2 µM (MCF7) [%]
Cc1ccc(CNC(=O)[C@H](Cc2c[nH]c3ccccc23)NC(=O)[C@H](CCC(=O)NC(C)(C)C)NC(=O)CCNC(=O)CCl)cc1 | 8.13 | 7.86 | 2 | 28 | 29 | < 20 | < 20 | < 20
Cc1ccc(CNC(=O)[C@H](Cc2ccccc2)NC(=O)[C@H](CCC(=O)NC(C)(C)C)NC(=O)CCNC(=O)CCl)cc1 | – | – | 12 | < 20 | 49 | 36 | < 20 | < 20
Cc1ccc(CNC(=O)[C@H](Cc2ccccc2F)NC(=O)[C@H](CCC(=O)NC(C)(C)C)NC(=O)CCNC(=O)CCl)cc1 | – | 7.09 | 4 | – | – | – | – | –
Cc1ccc(CNC(=O)[C@H](Cc2ccccc2)NC(=O)[C@H](CCC(=O)NC(C)(C)C)NC(=O)[C@H](CNC(=O)CCl)NC(=O)CN2CCOCC2)cc1 | – | – | 14 | 32 | 29 | < 20 | < 20 | < 20
CC(C)(C)NC(=O)CC[C@H](NC(=O)CCNC(=O)CCl)C(=O)N[C@@H](Cc1ccccc1)C(=O)NCc1cccc(C(F)(F)F)c1 | 6.90 | – | 22 | – | – | – | – | –
Cc1ccc(CNC(=O)[C@H](Cc2ccccc2)NC(=O)[C@H](CCC(=O)NC(C)(C)C)NC(=O)CCNC(=O)/C(C#N)=C/c2ccc(Cl)cc2)cc1 | – | – | 22 | 34 | 28 | < 20 | < 20 | 43
CC(C)c1ccc(CNC(=O)[C@H](Cc2ccccc2)NC(=O)[C@H](CCC(=O)NC(C)(C)C)NC(=O)CCNC(=O)CCl)cc1 | – | – | 12 | – | – | – | – | –
Cc1ccc(CNC(=O)[C@H](Cc2ccccc2)NC(=O)[C@H](CCC(=O)NC(C)(C)C)NC(=O)CCNC(=O)/C(C#N)=C/C2CC2)cc1 | 8.02 | – | 7 | < 20 | 26 | 25 | < 20 | 22
COc1ccc(/C=C(\C#N)C(=O)NCCC(=O)N[C@@H](CCC(=O)NC(C)(C)C)C(=O)N[C@@H](Cc2ccccc2)C(=O)NCc2ccc(C)cc2)cc1 | – | – | 2 | 28 | 32 | < 20 | < 20 | < 20
Cc1ccc(CNC(=O)[C@H](Cc2cccc(F)c2)NC(=O)[C@H](CCC(=O)NC(C)(C)C)NC(=O)CCNC(=O)CCl)cc1 | 8.19 | – | 20 | 29 | 35 | < 20 | < 20 | < 20
CC(C)(C)NC(=O)CC[C@H](NC(=O)CCNC(=O)CCl)C(=O)N[C@@H](Cc1ccccc1)C(=O)NCc1ccc2ccccc2c1 | – | – | 15 | 25 | 39 | < 20 | < 20 | < 20
CC(=O)N[C@@H](CNC(=O)CCl)C(=O)N[C@@H](CCC(=O)NC(C)(C)C)C(=O)N[C@@H](Cc1ccccc1)C(=O)NCc1ccc(C)cc1 | – | – | 3 | – | – | – | – | –
Cc1ccc(CNC(=O)[C@H](Cc2ccccc2)NC(=O)[C@H](CCC(=O)NC(C)(C)C)NC(=O)CCNC(=O)/C(C#N)=C/c2nccs2)cc1 | – | – | 4 | 22 | < 20 | 22 | < 20 | < 20
COc1cccc(CNC(=O)[C@H](Cc2ccccc2)NC(=O)[C@H](CCC(=O)NC(C)(C)C)NC(=O)CCNC(=O)CCl)c1 | – | – | 11 | – | – | – | – | –
CC(C)(C)NC(=O)CC[C@H](NC(=O)CCNC(=O)CCl)C(=O)N[C@@H](Cc1ccccc1)C(=O)NCc1ccc(N2CCOCC2)cc1 | – | – | 5 | – | – | – | – | –
Cc1ccc(CNC(=O)CNC(=O)[C@H](CCC(=O)NC(C)(C)C)NC(=O)[C@H](CNC(=O)CCl)NC(=O)CN2CCOCC2)cc1 | 7.02 | 5.41 | 41 | – | – | – | – | –
CC(C)(C)NC(=O)CC[C@H](NC(=O)CCNC(=O)CCl)C(=O)N[C@@H](Cc1ccccc1)C(=O)NCc1ccc(OC(F)(F)F)cc1 | – | < 5.30 | > 14 | – | – | – | – | –
